27 compounds from patent publication US20260042755A1, “GPR6 INVERSE AGONISTS” (MapLight Therapeutics, Inc., priority 2022, published 2026) can be followed below.

The target in one test is T1, GPR6 (Homo sapiens, UniProt P46095).
T1 construct: expressed in transfected cells; host or cells: CHO cells
In words: GPR6 antagonist functional cAMP assay (LANCE Ultra cAMP TR-FRET, CHO cells stably expressing GPR6). In kind it is cell-based. Summed up:
(§1)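 Compounds, at 0.1% final DMSO, acted on the cells for 45 minutes at 37 °C in the presence of the phosphodiesterase inhibitor Ro 20-1724 (150 μM). After lysis and detection, plates were shaken 1 h at room temperature and emission at 665 nm was recorded. Normalized data gave IC50 values.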

The target in another test is T2, GPR3 (Homo sapiens, UniProt P46089).
T2 construct: expressed in transfected cells; host or cells: CHO cells
T2 sequence (P46089 whole entry, species assumed): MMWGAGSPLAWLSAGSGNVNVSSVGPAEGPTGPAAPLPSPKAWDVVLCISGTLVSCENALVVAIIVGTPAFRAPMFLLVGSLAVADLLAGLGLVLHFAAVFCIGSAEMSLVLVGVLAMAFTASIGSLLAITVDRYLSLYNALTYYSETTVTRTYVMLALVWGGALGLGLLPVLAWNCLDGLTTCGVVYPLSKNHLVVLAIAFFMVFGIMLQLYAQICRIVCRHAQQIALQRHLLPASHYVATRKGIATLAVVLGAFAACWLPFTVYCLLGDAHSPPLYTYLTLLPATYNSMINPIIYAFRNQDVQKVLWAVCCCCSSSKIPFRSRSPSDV
As to the kind of experiment: GPR3 antagonist functional cAMP assay (LANCE Ultra cAMP TR-FRET, CHO cells stably expressing GPR3). In kind it is cell-based. An outline of the steps:
as §1
(In general: cAMP levels reflect the balance of adenylyl cyclase and phosphodiesterase activity.)

Setting [1] is: CHO cells stably expressing GPR6, cAMP assay.
Setting [2] is: CHO cells stably expressing GPR3, cAMP assay.
The mark [3] stands for this setting: CHO cells stably expressing GPR6, cAMP assay (Example 24).
[4] abbreviates: CHO cells stably expressing GPR3, cAMP assay (Example 24).

Broadly, the IC50 is the midpoint of a concentration-inhibition curve. Read a low IC50 as inhibition by little substance.

T1 sequence (P46095 whole entry): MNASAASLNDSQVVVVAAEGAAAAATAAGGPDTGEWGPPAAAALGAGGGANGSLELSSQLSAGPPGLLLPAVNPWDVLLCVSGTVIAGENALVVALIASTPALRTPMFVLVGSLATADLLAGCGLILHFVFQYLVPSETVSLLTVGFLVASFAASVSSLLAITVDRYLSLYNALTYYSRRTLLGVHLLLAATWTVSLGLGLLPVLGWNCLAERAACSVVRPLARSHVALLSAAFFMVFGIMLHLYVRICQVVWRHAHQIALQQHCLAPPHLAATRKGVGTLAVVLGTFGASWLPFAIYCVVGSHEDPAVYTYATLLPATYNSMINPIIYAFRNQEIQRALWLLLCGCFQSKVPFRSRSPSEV

With `CC(=O)N1CCc2nc(N3CCC(Oc4ccc(C(F)(F)F)cc4F)CC3)c(-c3cnn(C)c3)nc2C1` [Compound 501, 1-(2-{4-[2-fluoro-4-(trifluoromethyl)phenoxy]-1-piperidyl}-3-(1-methyl-4-pyrazolyl)-5,6,7,8-tetrahydro-1,4,6-triaza-6-naphthyl)-1-ethanone], the concentration for half-maximal inhibition (IC50) at GPR6 (setting [1]) and on GPR3 (setting [2]) was 0.1 to 1 µM in each case.

Take `CC(=O)N1CCc2nc(N3CCN(Cc4ccc(F)cc4C#N)CC3)c(-c3cnn(C)c3)nc2C1` [Compound 355, 2-({4-[6-acetyl-3-(1-methyl-1H-pyrazol-4-yl)-5H,6H,7H,8H-pyrido[3,4-b]pyrazin-2-yl]piperazin-1-yl}methyl)-5-fluorobenzonitrile]: the half-maximal inhibitory concentration (IC50) against GPR6 (procedure of Example 24) and against GPR3 (procedure of Example 24) was 1 to 30 µM each time.

For `COc1ncc(-c2nc3c(nc2N2CCC(Oc4ccc(F)cc4F)CC2)CCN(C(C)=O)C3)cc1F` [Compound 160, 1-{2-[4-(2,4-difluorophenoxy)piperidin-1-yl]-3-(5-fluoro-6-methoxypyridin-3-yl)-5H,6H,7H,8H-pyrido[3,4-b]pyrazin-6-yl}ethan-1-one], the IC50 is 0.1 to 1 µM against GPR6 (setting [3]) and 1 to 30 µM against GPR3 (setting [4]).

In the case of `CCn1cc(-c2nc3cnc([C@@](C)(O)C(C)(C)O)cc3nc2N2CCC(Oc3ccc(F)cc3F)CC2)cn1` (single isomer, unassigned) [Compound 736], the IC50 against GPR6 (procedure of Example 24) was 0.1 to 1 µM; on GPR3 (procedure of Example 24), 1 to 30 µM.

In the case of `CC(C)(O)[C@@](C)(O)c1cc2nc(-c3cnn(CF)c3)c(N3CCC(Oc4ccc(F)cc4F)CC3)nc2cn1` (single isomer, unassigned) [Compound 783], the half-maximal inhibitory concentration (IC50) lay in the range of 0.1 to 1 µM against GPR6 (procedure of Example 24) and 1 to 30 µM against GPR3 (procedure of Example 24).

As to `CNC(=O)c1cc2nc(N3CCC(Oc4ccc(F)cc4F)CC3)c(-c3cncc(OC)n3)nc2cn1` [Compound 222, 2-[4-(2,4-difluorophenoxy)piperidin-1-yl]-3-(6-methoxypyrazin-2-yl)-N-methylpyrido[3,4-b]pyrazine-7-carboxamide], the concentration for half-maximal inhibition (IC50) at GPR6 (setting [3]) and at GPR3 (setting [4]) was 1 to 30 µM throughout.

On to `CC(=O)N1CCc2nc(N3CCC(Oc4ccc(Cl)cc4F)CC3)c(-c3cnn(C)c3)nc2C1` [Compound 456, 1-{2-[4-(4-chloro-2-fluorophenoxy)piperidin-1-yl]-3-(1-methyl-1H-pyrazol-4-yl)-5H,6H,7H,8H-pyrido[3,4-b]pyrazin-6-yl}ethan-1-one], for which the IC50 at GPR6 (setting [3]) was 0.1 to 1 µM; against GPR3 (setting [4]) it was 1 to 30 µM.

Turning to `CCn1cc(-c2nc3c(nc2N2CCC(Oc4ccc(F)cc4F)CC2)CCN(S(C)(=N)=O)C3)cn1` (stereo not drawn) [Compound 485, 2-(4-(2,4-difluorophenoxy)piperidin-1-yl)-3-(1-ethyl-1H-pyrazol-4-yl)-6-(S-methylsulfonimidoyl)-5,6,7,8-tetrahydropyrido[3,4-b]pyrazine], the IC50 at GPR6 (setting [3]) lay within 0.1 to 1 µM; against GPR3 (setting [4]), 1 to 30 µM.

`CNc1nccc(-c2nc3c(nc2N2CCC(Oc4ccc(F)cc4F)CC2)CCN(C(C)=O)C3)n1` [Compound 473, 1-{2-[4-(2,4-difluorophenoxy)piperidin-1-yl]-3-[2-(methylamino)pyrimidin-4-yl]-5H,6H,7H,8H-pyrido[3,4-b]pyrazin-6-yl}ethan-1-one]: the IC50 was in the range of 0.1 to 1 µM against GPR6 (setting [3]) and 1 to 30 µM on GPR3 (setting [4]).

For `CCn1cc(-c2nc3cnc(N)cc3nc2N2CCC(Oc3cc(Cl)ccc3Cl)CC2)cn1` [Compound 440, 2-[4-(2,5-dichlorophenoxy)piperidin-1-yl]-3-(1-ethyl-1H-pyrazol-4-yl)pyrido[3,4-b]pyrazin-7-amine], the concentration for half-maximal inhibition (IC50) at GPR6 (setting [3]) and against GPR3 (setting [4]) was 1 to 30 µM each time.

As for `COC(=O)/C=C/c1cc2nc(N3CCC(Oc4ccc(F)cc4F)CC3)c(-c3cnn(C)c3)nc2cn1` [Compound 745, methyl 3-{2-[4-(2,4-difluorophenoxy)-1-piperidyl]-3-(1-methyl-4-pyrazolyl)-1,4,6-triaza-7-naphthyl}acrylate], the IC50 against GPR6 (procedure of Example 24) and on GPR3 (procedure of Example 24) was 1 to 30 µM throughout.

For `CC(=O)N1CCc2nc(N3CCC(Oc4ccc(F)cc4F)CC3)c(-c3cccc(F)n3)nc2C1` [Compound 57, 1-{2-[4-(2,4-difluorophenoxy)piperidin-1-yl]-3-(6-fluoropyridin-2-yl)-5H,6H,7H,8H-pyrido[3,4-b]pyrazin-6-yl}ethan-1-one], the IC50 against GPR6 (setting [3]) and on GPR3 (setting [4]) was 1 to 30 µM each time.

Turning to `CC(=O)N1CCc2nc(N3CCC(C(F)c4ccc(F)cc4F)CC3)c(-c3cnn(C)c3)nc2C1` (stereo not drawn) [Compound 557, 1-(2-{4-[(2,4-difluorophenyl)fluoromethyl]-1-piperidyl}-3-(1-methyl-4-pyrazolyl)-5,6,7,8-tetrahydro-1,4,6-triaza-6-naphthyl)-1-ethanone], the IC50 at GPR6 (setting [1]) and on GPR3 (setting [2]) was < 0.1 µM in each case.

Consider `Cn1cc(-c2nc3cc(C(=O)C(C)(C)O)ncc3nc2N2CCN(Cc3ccc(F)cc3F)CC2)cn1` [Compound 563, 1-(3-{4-[(2,4-difluorophenyl)methyl]-1-piperazinyl}-2-(1-methyl-4-pyrazolyl)-1,4,6-triaza-7-naphthyl)-2-hydroxy-2-methyl-1-propanone], for which the results for the half-inhibitory concentration (IC50) against GPR6 (setting [1]) and on GPR3 (setting [2]) were 0.1 to 1 µM and 1 to 30 µM, respectively.

For `CC(=O)N1CCc2nc(N3CCN(Cc4ccc(F)cc4C)CC3)c(-c3cnn(C)c3)nc2C1` [Compound 347, 1-(2-{4-[(4-fluoro-2-methylphenyl)methyl]piperazin-1-yl}-3-(1-methyl-1H-pyrazol-4-yl)-5H,6H,7H,8H-pyrido[3,4-b]pyrazin-6-yl)ethan-1-one], the 50% inhibitory concentration (IC50) at GPR6 (procedure of Example 24) and at GPR3 (procedure of Example 24) was 1 to 30 µM each time.

For the compound `CC(=O)OC1CCN(c2nc3c(nc2-c2cnn(C)c2)CN(C(C)=O)CC3)C1` (stereo not drawn) [Compound 315, 1-[6-acetyl-3-(1-methyl-1H-pyrazol-4-yl)-5H,6H,7H,8H-pyrido[3,4-b]pyrazin-2-yl]pyrrolidin-3-yl acetate], the half-maximal inhibitory concentration (IC50) on GPR6 (procedure of Example 24) is ≥ 30 µM; against GPR3 (procedure of Example 24) it was 0.1 to 1 µM.

As for `CNC(=O)c1cccc(-c2nc3c(nc2N2CCC(Oc4ccc(F)cc4F)CC2)CCN(C(C)=O)C3)n1` [Compound 132, 6-{6-acetyl-2-[4-(2,4-difluorophenoxy)piperidin-1-yl]-5H,6H,7H,8H-pyrido[3,4-b]pyrazin-3-yl}-N-methylpyridine-2-carboxamide], the IC50 on GPR6 (setting [3]) and against GPR3 (setting [4]) was 1 to 30 µM throughout.

`COc1ccnc(-c2nc3c(nc2N2CCC(Oc4ccc(F)cc4F)CC2)CCN(C(C)=O)C3)n1` [Compound 56, 1-{2-[4-(2,4-difluorophenoxy)piperidin-1-yl]-3-(4-methoxypyrimidin-2-yl)-5H,6H,7H,8H-pyrido[3,4-b]pyrazin-6-yl}ethan-1-one]: the half-maximal inhibitory concentration (IC50) at GPR6 (setting [3]) lay in the range of 1 to 30 µM; on GPR3 (setting [4]) it was 0.1 to 1 µM.

As for `CC(=O)N1CCc2nc(N3CCC(C(=O)N4CCN(C)C(=O)C4)C3)c(-c3cnn(C)c3)nc2C1` (stereo not drawn) [Compound 390, 4-{1-[6-acetyl-3-(1-methyl-1H-pyrazol-4-yl)-5H,6H,7H,8H-pyrido[3,4-b]pyrazin-2-yl]pyrrolidine-3-carbonyl}-1-methylpiperazin-2-one], the IC50 against GPR6 (setting [3]) and on GPR3 (setting [4]) was 1 to 30 µM throughout.

As to `Cn1cc(-c2nc3cnc([C@H](O)C(C)(C)F)cc3nc2N2CCC(Oc3ccc(F)cc3F)CC2)cn1` (single isomer, unassigned) [Compound 743], the half-inhibitory concentration (IC50) against GPR6 (procedure of Example 24) fell in the range of 0.1 to 1 µM; at GPR3 (procedure of Example 24) it was 1 to 30 µM.

For the compound `COCC(=O)N1CCc2nc(N3CCC(Oc4ccc(F)cc4F)CC3)c(-c3cnn(C4CCCCO4)c3)nc2C1` (stereo not drawn) [Compound 201, 1-{2-[4-(2,4-difluorophenoxy)piperidin-1-yl]-3-[1-(oxan-2-yl)-1H-pyrazol-4-yl]-5H,6H,7H,8H-pyrido[3,4-b]pyrazin-6-yl}-2-methoxyethan-1-one], the half-maximal inhibitory concentration (IC50) on GPR6 (setting [3]) and against GPR3 (setting [4]) was 1 to 30 µM throughout.

In the case of `CC(C)(O)[C@](C)(O)c1cc2nc(N3CCN(Cc4ccc(F)cc4F)CC3)c(-c3cnn(CF)c3)nc2cn1` (single isomer, unassigned) [Compound 649], the IC50 against GPR6 (procedure of Example 24) was 0.1 to 1 µM; against GPR3 (procedure of Example 24), 1 to 30 µM.

Regarding `CC(=O)N1CCc2nc(N3CCN(Cc4cccs4)CC3)c(-c3cnn(C)c3)nc2C1` [Compound 515, 1-[3-(1-methyl-4-pyrazolyl)-2-(4-thenyl-1-piperazinyl)-5,6,7,8-tetrahydro-1,4,6-triaza-6-naphthyl]-1-ethanone], the IC50 on GPR6 (setting [1]) and against GPR3 (setting [2]) was 1 to 30 µM each time.

`CCS(=O)(=O)N1CCc2nc(N3CCC(Oc4ccc(F)cc4F)CC3)c(-c3cnn(C4CCCCO4)c3)nc2C1` (stereo not drawn) [Compound 177, 4-(2,4-difluorophenoxy)-1-[6-(ethanesulfonyl)-3-[1-(oxan-2-yl)-1H-pyrazol-4-yl]-5H,6H,7H,8H-pyrido[3,4-b]pyrazin-2-yl]piperidine]: the figures for the IC50 against GPR6 (setting [3]) and at GPR3 (setting [4]) were 0.1 to 1 µM and 1 to 30 µM, respectively.

As for `CC(=O)N1CCc2nc(N3CCN(Cc4ccccn4)CC3)c(-c3cnn(C)c3)nc2C1` [Compound 511, 1-[3-(1-methyl-4-pyrazolyl)-2-{4-[(2-pyridyl)methyl]-1-piperazinyl}-5,6,7,8-tetrahydro-1,4,6-triaza-6-naphthyl]-1-ethanone], the IC50 at GPR6 (setting [1]) and at GPR3 (setting [2]) was ≥ 30 µM each time.

Turning to `COc1ccccc1CN1CCN(c2nc3c(nc2-c2cnn(C)c2)CN(C(C)=O)CC3)CC1` [Compound 509, 1-(2-{4-[(o-methoxyphenyl)methyl]-1-piperazinyl}-3-(1-methyl-4-pyrazolyl)-5,6,7,8-tetrahydro-1,4,6-triaza-6-naphthyl)-1-ethanone], the 50% inhibitory concentration (IC50) against GPR6 (setting [1]) was ≥ 30 µM; at GPR3 (setting [2]), 1 to 30 µM.

As to `CCn1cc(-c2nc3cnccc3nc2N2CCC(Oc3cc(Cl)ccc3F)CC2)cn1` [Compound 295, 4-(5-chloro-2-fluorophenoxy)-1-[3-(1-ethyl-1H-pyrazol-4-yl)pyrido[3,4-b]pyrazin-2-yl]piperidine], the IC50 is < 0.1 µM on GPR6 (procedure of Example 24) and 1 to 30 µM against GPR3 (procedure of Example 24).
